Values quoted from earlier work as cited in patent US10045948B2, “Pramipexole-containing transdermal patch for treatment of neurodegenerative disease” (MEDRX CO., LTD., priority 2014, dated 2018).

Details: in vivo

rotigotine
Patients with rash and other types of inflammation at the application site: 40-50%
